Source: paper PMC7922564, “Molecular Insights into an Antibiotic Enhancer Action of New Morpholine-Containing 5-Arylideneimidazolones in the Fight against MDR Bacteria” (International Journal of Molecular Sciences, 2021)
Like-named read-outs stand apart in the source and are kept apart here.

Tests used:
S. aureus 5328 [1] = assay: MIC of compounds, S. aureus 5328; type: cell-based; settings: Staphylococcus aureus; 5328 (MRSA)
Protocol: (§1) Compounds 14–16 were tested further for their adjuvant-like effect with a set of ten additional S. aureus isolates. Firstly, MIC values of the molecules were evaluated in two clinical MSSA isolates (MM-O058, MM-N072), seven MRSA (USA300 LAC, 5328, LG-N017, MM-O021, R45-CC45, R46-CC22, COL) and one VISA strain (Mu50). Detailed results are presented in the Supplementary section (Table S3).
(§2) Determination of MIC values, i.e., intrinsic antibacterial activity, of products and antibiotics (oxacillin, ampicillin, vancomycin, ciprofloxacin, and erythromycin) in the presence and absence of compounds tested was conducted by the use of a standard 2-fold microdilution method in cation-adjusted Mueller Hinton broth following the Clinical and Laboratory Standards Institute (CLSI) guidelines. The MIC values were detected using an Infinite M200 pro Tecan microplate reader (Tecan® France, SA-Lyon, France). MIC determinations were conducted in 96-well microtiter plates and repeated 3–4 times.
(§3) Initially, MICs of a series of imidazolone derivatives were assessed against susceptible (reference) and MDR strains of staphylococci. Next, MIC values of the aforementioned antibiotics were determined in the absence and presence of imidazolone derivatives to assess the chemosensitizing effect of these compounds. […] 5-arylideneimidazolones and 5-arylidenethiazolones, which precipitated after addition to bacterial suspension in MH II medium, were tested at the highest concentrations at which precipitation was not observed. […] Antibacterial activity of compounds and antibiotics ampicillin, vancomycin, ciprofloxacin, and erythromycin was recorded as the lowest concentration of molecules able to inhibit bacterial growth after 18 h incubation at 37 °C. […] The results are presented as activity gain (A) parameter which was calculated as ratio of MIC of a certain antibiotic (MICAnt) to its MICAnt+Comp, observed in combination with a tested compound (7, 12–16, 19, or 20; Equation (1)). […]

S. aureus COL [2] = assay: MIC of compounds, S. aureus COL; type: cell-based; settings: Staphylococcus aureus; COL (MRSA)
Protocol: as §1, §2, §3

[3] = system: K. aerogenes Ea-294, Ea-308 (devoid of AcrAB); assay: MIC of compounds, K. aerogenes Ea-294, Ea-308; type: cell-based; settings: Klebsiella aerogenes, read-out: Minimal Inhibitory Concentration (MIC)
Description: (§4) A subset of compounds, namely 7, 12–16, 19, 20, was also examined for the potential to increase the effectiveness of the antibiotics chloramphenicol, erythromycin, doxycycline, and the fluoroquinolone antibiotic norfloxacin, which all are substrates for AcrAB-TolC in K. aerogenes. In addition to strain Ea-289, the adjuvant-like effect of the compounds was investigated in strain CM-64, which also overexpresses the AcrAB-TolC efflux pump, although it has no changes in porin content, and in the Ea-289 derivatives, i.e., Ea-294 and Ea-308, which are devoid of AcrAB (Table S17, Supplementary).
as §2
(§5) MIC values of 5-arylideneimidazolone derivatives were determined following CLSI recommendations as in the methods described for S. aureus (Section 3.3.1).

S. aureus LG-N017 [4] = assay: MIC reduction assay (antibiotic adjuvant), S. aureus LG-N017; type: cell-based, Staphylococcus aureus
Description: (§6) The adjuvant properties of compounds 14–16 in S. aureus clinical isolates were next tested in combination with oxacillin and the penicillinase-susceptible β-lactam antibiotic, ampicillin. The second β-lactam antibiotic was chosen based on its vulnerability to enzymatic hydrolysis, another important resistance mechanism in S. aureus against penicillin. Therefore, the results of the MIC reduction assay obtained on the activity of arylideneimidazolones combined with oxacillin and ampicillin, respectively, might provide further insights into the possible mechanism of action of the compounds. Complete results are presented in Supplementary (Tables S4 and S5), while condensed in Figure 6, in the case of desired activity noted. […] One possible explanation for the lack of adjuvant activity of compounds in some of the strains selected for this study might be that these strains express PBP2a only when induced by the antibiotic, while others, for which potentiating activity of compounds was observed, produce this protein in high levels straight away.
as §2
(§7) Initially, MICs of a series of imidazolone derivatives were assessed against susceptible (reference) and MDR strains of staphylococci. Next, MIC values of the aforementioned antibiotics were determined in the absence and presence of imidazolone derivatives to assess the chemosensitizing effect of these compounds. […] 5-arylideneimidazolones and 5-arylidenethiazolones, which precipitated after addition to bacterial suspension in MH II medium, were tested at the highest concentrations at which precipitation was not observed. […] Antibacterial activity of compounds and antibiotics ampicillin, vancomycin, ciprofloxacin, and erythromycin was recorded as the lowest concentration of molecules able to inhibit bacterial growth after 18 h incubation at 37 °C. The incubation of bacterial strains exposed to oxacillin paired with compounds tested was conducted at 35 °C and extended to 24 h due to frequent occurrence of heterogeneity among MRSA strains. The results are presented as activity gain (A) parameter which was calculated as ratio of MIC of a certain antibiotic (MICAnt) to its MICAnt+Comp, observed in combination with a tested compound (7, 12–16, 19, or 20; Equation (1)). (1) A=(MICAnt/MICAnt+Comp)

S. aureus USA300 LAC = assay: MIC of compounds, S. aureus USA300 LAC; type: cell-based; settings: Staphylococcus aureus
Protocol: as §1, §2, §3

S. aureus MM-N072 = assay: MIC reduction assay (antibiotic adjuvant), S. aureus MM-N072; type: cell-based, Staphylococcus aureus
Description: as §6, §2, §7

S. aureus Mu50 = assay: MIC reduction assay (antibiotic adjuvant), S. aureus Mu50; type: cell-based, Staphylococcus aureus; set-up: key: A = MIC of antibiotic alone / MIC with compound;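 further: compound at no more than one quarter of its own MIC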
Description: as §6, §2, §7

S. aureus MM-O058 [5] = assay: MIC of compounds, S. aureus MM-O058; type: cell-based; settings: Staphylococcus aureus; MM-O058 (MSSA)
Protocol: as §1, §2, §3

[6] = system: K. aerogenes Ea-294, Ea-308 (devoid of AcrAB); assay: MIC of compounds, K. aerogenes Ea-294, Ea-308; type: cell-based, Klebsiella aerogenes; settings: ratio of compound MICs
S. aureus COL [7] = assay: MIC reduction assay (antibiotic adjuvant), S. aureus COL; type: cell-based, Staphylococcus aureus; settings: ampicillin
Description: as §6, with “away. […]” for “away.”
Initially, MICs of a series of imidazolone derivatives were assessed against susceptible (reference) and MDR strains of staphylococci. Next, MIC values of the aforementioned antibiotics were determined in the absence and presence of imidazolone derivatives to assess the chemosensitizing effect of these compounds. […] Antibacterial activity of compounds and antibiotics ampicillin, vancomycin, ciprofloxacin, and erythromycin was recorded as the lowest concentration of molecules able to inhibit bacterial growth after 18 h incubation at 37 °C. […] The results are presented as activity gain (A) parameter which was calculated as ratio of MIC of a certain antibiotic (MICAnt) to its MICAnt+Comp, observed in combination with a tested compound (7, 12–16, 19, or 20; Equation (1)). […]

[8] = system: K. aerogenes Ea-294, Ea-308; assay: MIC reduction assay (antibiotic adjuvant), K. aerogenes Ea-294, Ea-308; type: cell-based, Klebsiella aerogenes; settings: doxycycline, chloramphenicol, norfloxacin, erythromycin;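 further: compound at no more than one quarter of its own MIC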
Description: as §4, §7, §5

S. aureus 5328 [9] = assay: MIC reduction assay (antibiotic adjuvant), S. aureus 5328; type: cell-based, Staphylococcus aureus
Description: as §6, §2, §7

S. aureus LG-N017 [10] = assay: MIC of compounds, S. aureus LG-N017; type: cell-based; settings: Staphylococcus aureus; LG-N017 (MRSA)
Protocol: as §1, §2, §3

K. aerogenes CM-64 = assay: MIC reduction assay (antibiotic adjuvant), K. aerogenes CM-64; type: cell-based, Klebsiella aerogenes; settings: doxycycline, chloramphenicol, norfloxacin, erythromycin;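 further: compound at no more than one quarter of its own MIC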
Description: as §4, §7, §5

S. aureus R45-CC45 = assay: MIC reduction assay (antibiotic adjuvant), S. aureus R45-CC45; type: cell-based, Staphylococcus aureus; settings: ampicillin; for A (activity gain): range over repetitions
Description: as §6, §2, §3

S. aureus MM-O021 = assay: MIC reduction assay (antibiotic adjuvant), S. aureus MM-O021; type: cell-based, Staphylococcus aureus
Description: as §6, §2, §7

S. aureus MM-O058 [11] = assay: MIC reduction assay (antibiotic adjuvant), S. aureus MM-O058; type: cell-based, Staphylococcus aureus
Description: as §6, §2, §7

[12] = system: K. aerogenes Ea-289 (overexpression of AcrAB-TolC); assay: MIC of compounds, K. aerogenes Ea-289; type: cell-based; settings: Klebsiella aerogenes
Protocol: At first, MIC values of compounds were determined (Table S15, Supplementary). Next, their abilities to reduce MICs of the AcrAB-TolC substrates doxycycline (a tetracycline-class antibiotic) and erythromycin were studied (Table S16, Supplementary). […]
as §2, §5

[13] = ampicillin, range over repetitions
[14] = read-out: MIC value/no precipitation
[15] = read-out: Minimal Inhibitory Concentration (MIC)
[16] = USA300 LAC (MRSA), read-out: MIC value of compounds

| SMILES | MIC (S. aureus 5328 [1]) | MIC (S. aureus COL [2]) | MIC [3] | A (activity gain) (S. aureus LG-N017 [4]; ampicillin) | A (activity gain) (S. aureus LG-N017 [4]; erythromycin) | A (activity gain) (S. aureus MM-N072; ampicillin) | A (activity gain) (S. aureus MM-N072; erythromycin) | A (activity gain) (S. aureus Mu50; ampicillin) | A (activity gain) (S. aureus Mu50; ciprofloxacin) | A (activity gain) (S. aureus Mu50; erythromycin) | A (activity gain) (S. aureus Mu50; vancomycin) | MIC (S. aureus MM-O058 [5]) | more effective in strains Ea-294 and Ea-298 when compared to the parental strain Ea-289 [6] | A (activity gain) (S. aureus COL [7]) | A (activity gain) [8] | A (activity gain) (S. aureus 5328 [9]; ampicillin) | A (activity gain) (S. aureus 5328 [9]; erythromycin, S. aureus 53284) | MIC (S. aureus LG-N017 [10]) | A (activity gain) (K. aerogenes CM-64) | MIC [12, 15] | further results |
| --- | --- | --- | --- | --- | --- | --- | --- | --- | --- | --- | --- | --- | --- | --- | --- | --- | --- | --- | --- | --- | --- |
| NC1=N/C(=C\c2ccc(-c3ccccc3)cc2)C(=O)N1CCCN1CCOCC1 [Compound 15] | 250 µM | 250 µM | 125 µM | 1 | 1 | 1 | 1 | 2 | 1 | 1 | 1 | 250 µM | ≥ 4 fold | 1 | 1 | 2 | 1 | 250 µM | 1 | > 2000 µM | MIC (S. aureus USA300 LAC; MRSA / USA300, read-out: MIC value of compounds): 125 µM; A (AMP), gain of activity, arithmetic mean (S. aureus R45-CC45; arithmetic mean of 3-4 repetitions): 6; A (activity gain) (S. aureus R45-CC45): 4-8; A (AMP), gain of activity, arithmetic mean (S. aureus MM-O021; ampicillin, arithmetic mean of 3-4 repetitions): 10.7; A (activity gain) (S. aureus MM-O021; [13]): 8-16; A (activity gain) (S. aureus MM-O021; erythromycin): 1; A (activity gain) (S. aureus MM-O058 [11]; ampicillin): 1; A (activity gain) (S. aureus MM-O058 [11]; erythromycin): 1; MIC [12, 14]: > 250 µM |
| NC1=N/C(=C\c2ccc(-c3ccccc3)cc2)C(=O)N1CCN1CCOCC1 [Compound 14] | ≥ 500 µM | ≥ 500 µM | 2000 µM | 2 | 1 | 1 | 1 | 1 | 1 | 1 | 1 | ≥ 1000 µM |  | 1 | 1 | 2 | 1 | ≥ 500 µM | 1 | > 2000 µM | MIC (S. aureus USA300 LAC; [16]): ≥ 500 µM; A (activity gain) (S. aureus R45-CC45): 2-4; A (activity gain) (S. aureus MM-O021; [13]): 1; A (activity gain) (S. aureus MM-O021; erythromycin): 1; A (activity gain) (S. aureus MM-O058 [11]; ampicillin): 1; A (activity gain) (S. aureus MM-O058 [11]; erythromycin): 1; MIC [12, 14]: > 250 µM |
| NC1=N/C(=C\c2ccc3c(c2)Cc2ccccc2-3)C(=O)N1CCCN1CCOCC1 [Compound 19] |  |  | 250 µM |  |  |  |  |  |  |  |  |  | ≥ 4 fold |  | 1 |  |  |  | 1 | > 2000 µM | MIC [12, 14]: > 250 µM |
| NC1=N/C(=C\c2cccc(Oc3ccccc3)c2)C(=O)N1CCCN1CCOCC1 [Compound 16] | 250 µM | 250 µM | 500 µM | 1 | 1 | 1 | 1 | 2 | 1 | 1 | 1 | 250 µM | ≥ 4 fold | 1 |  | 1 | 1 | 250 µM |  | > 2000 µM | MIC (S. aureus USA300 LAC; [16]): 250 µM; A (activity gain) (S. aureus R45-CC45): 1; A (activity gain) (S. aureus MM-O021; [13]): 1; A (activity gain) (S. aureus MM-O021; erythromycin): 1; A (activity gain) (S. aureus MM-O058 [11]; ampicillin): 1; A (activity gain) (S. aureus MM-O058 [11]; erythromycin): 1 |
